Test results taken from PubChem BioAssay (NCI).
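How tested: cells in 96-well plates exposed to compound for 48 hours at five concentrations. TGI is the concentration that stops growth completely.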

Columns and labels:
Assay in all cases: NCI-60 cell line screen, 48 h
[1] = test system: HS 578T breast
[2] = test system: CAKI-1 renal
[3] = test system: SK-MEL-5 melanoma
[4] = test system: BT-549 breast
[5] = test system: MALME-3M melanoma
[6] = test system: HT29 colon
[7] = test system: COLO 205 colon
[8] = test system: UACC-257 melanoma
[9] = test system: A498 renal
[10] = test system: T-47D breast
[11] = test system: LOX IMVI melanoma
[12] = test system: IGROV1 ovarian
[13] = test system: NCI/ADR-RES ovarian
[14] = test system: UACC-62 melanoma
[15] = test system: SNB-19 CNS
[16] = test system: DU-145 prostate
[17] = test system: SR leukemia
[18] = test system: NCI-H226 lung
[19] = test system: MCF7 breast
[20] = test system: 786-0 renal
[21] = test system: UO-31 renal
[22] = test system: PC-3 prostate
[23] = test system: SF-268 CNS
[24] = test system: KM12 colon
[25] = test system: SK-MEL-28 melanoma
[26] = test system: MDA-MB-231 breast
[27] = test system: HCC-2998 colon
[28] = test system: EKVX NSCLC
[29] = test system: MDA-N
[30] = test system: NCI-H522 lung
[31] = test system: RPMI-8226 leukemia
[32] = test system: HL-60(TB) leukemia
[33] = test system: SF-295 CNS
[34] = test system: RXF 393 renal
[35] = test system: SN12C renal
[36] = test system: HCT-116 colon
[37] = test system: OVCAR-3 ovarian
[38] = test system: TK-10 renal
[39] = test system: OVCAR-5 ovarian
[40] = test system: NCI-H23 lung
[41] = test system: HOP-62 NSCLC
[42] = test system: NCI-H460 lung
[43] = test system: ACHN renal
[44] = test system: SW-620 colon
[45] = test system: HCT-15 colon
[46] = test system: MOLT-4 leukemia
[47] = test system: OVCAR-8 ovarian
[48] = test system: MDA-MB-435
[49] = test system: SNB-75 CNS
[50] = test system: OVCAR-4 ovarian
[51] = test system: K-562 leukemia
[52] = test system: U251 CNS
[53] = test system: SF-539 CNS
[54] = test system: A549 NSCLC
[55] = test system: M14 melanoma
[56] = test system: SK-MEL-2 melanoma
[57] = test system: CCRF-CEM leukemia
[58] = test system: SK-OV-3 ovarian
[59] = test system: HOP-92 NSCLC

## COc1ccc(-n2c(C)nc3ccc(N=Cc4ccccc4)cc3c2=O)cc1
[1]
  TGI: > 100 µM
[2]
  TGI: > 100 µM
[3]
  TGI: > 100 µM
[4]
  TGI: > 100 µM
[5]
  TGI: > 100 µM
[6]
  TGI: > 100 µM
[7]
  TGI: > 100 µM
[8]
  TGI: > 100 µM
[9]
  TGI: > 100 µM
[10]
  TGI: > 100 µM
[11]
  TGI: > 100 µM
[12]
  TGI: > 100 µM
[13]
  TGI: > 100 µM
[14]
  TGI: > 100 µM
[15]
  TGI: > 100 µM
[16]
  TGI: > 100 µM
[17]
  TGI: > 100 µM
[18]
  TGI: > 100 µM
[19]
  TGI: > 100 µM
[20]
  TGI: > 100 µM
[21]
  TGI: > 100 µM
[22]
  TGI: > 100 µM
[23]
  TGI: > 100 µM
[24]
  TGI: > 100 µM
[25]
  TGI: > 100 µM
[26]
  TGI: > 100 µM
[27]
  TGI: > 100 µM
[28]
  TGI: > 100 µM
[29]
  TGI: > 100 µM
[30]
  TGI: > 100 µM
[31]
  TGI: > 100 µM
[32]
  TGI: > 100 µM
[33]
  TGI: > 100 µM
[34]
  TGI: > 100 µM
[35]
  TGI: > 100 µM
[36]
  TGI: > 100 µM
[37]
  TGI: > 100 µM
[38]
  TGI: > 100 µM
[39]
  TGI: > 100 µM
[40]
  TGI: > 100 µM
[41]
  TGI: > 100 µM
[42]
  TGI: > 100 µM
[43]
  TGI: > 100 µM
[44]
  TGI: > 100 µM
[45]
  TGI: > 100 µM
[46]
  TGI: > 100 µM
[47]
  TGI: > 100 µM
[48]
  TGI: > 100 µM
[49]
  TGI: > 100 µM
[50]
  TGI: > 100 µM
[51]
  TGI: > 100 µM
[52]
  TGI: > 100 µM

## Nc1nc(N)c2ncn(Cc3c(Cl)cccc3Cl)c2n1
[53]
  TGI: > 100 µM
[1]
  TGI: > 100 µM
[2]
  TGI: > 100 µM
[3]
  TGI: > 100 µM
[4]
  TGI: > 100 µM
[5]
  TGI: > 100 µM
[6]
  TGI: > 100 µM
[7]
  TGI: > 100 µM
[8]
  TGI: > 100 µM
[9]
  TGI: > 100 µM
[10]
  TGI: > 100 µM
[11]
  TGI: > 100 µM
[12]
  TGI: > 100 µM
[13]
  TGI: > 100 µM
[14]
  TGI: > 100 µM
[15]
  TGI: > 100 µM
[16]
  TGI: > 100 µM
[18]
  TGI: > 100 µM
[19]
  TGI: > 100 µM
[20]
  TGI: > 100 µM
[21]
  TGI: > 100 µM
[22]
  TGI: > 100 µM
[54]
  TGI: > 100 µM
[23]
  TGI: > 100 µM
[24]
  TGI: > 100 µM
[25]
  TGI: > 100 µM
[26]
  TGI: > 100 µM
[27]
  TGI: > 100 µM
[28]
  TGI: > 100 µM
[55]
  TGI: > 100 µM
[29]
  TGI: > 100 µM
[30]
  TGI: > 100 µM
[31]
  TGI: > 100 µM
[56]
  TGI: > 100 µM
[57]
  TGI: > 100 µM
[33]
  TGI: > 100 µM
[34]
  TGI: > 100 µM
[58]
  TGI: > 100 µM
[35]
  TGI: > 100 µM
[36]
  TGI: > 100 µM
[37]
  TGI: > 100 µM
[38]
  TGI: > 100 µM
[39]
  TGI: > 100 µM
[40]
  TGI: > 100 µM
[41]
  TGI: > 100 µM
[43]
  TGI: > 100 µM
[44]
  TGI: > 100 µM
[45]
  TGI: > 100 µM
[46]
  TGI: > 100 µM
[47]
  TGI: > 100 µM
[48]
  TGI: > 100 µM
[49]
  TGI: 48.7 µM
[59]
  TGI: > 100 µM
[50]
  TGI: > 100 µM
[52]
  TGI: > 100 µM
